Measurements: ChEMBL document CHEMBL1201862, “PubChem BioAssay data set” (2004)
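Results reflect a 48-hour exposure of cells in 96-well plates to compound at five concentrations. GI50 = concentration required for 50% inhibition of growth.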 The source made the active and inactive calls. Rule as the data show it: active = GI50 up to about 1.1 µM and inactive = higher.

Key:
Assay in all cases: growth of human tumour cells (NCI), 48 h
SW-620 = test system: SW-620
K562 = test system: K562
SK-MEL-28 = test system: SK-MEL-28
HOP-62 = test system: HOP-62
NCI-H460 = test system: NCI-H460
HCT-15 = test system: HCT-15
A498 = test system: A498
OVCAR-4 = test system: OVCAR-4
LXFL 529 = test system: LXFL 529
SNB-75 = test system: SNB-75
SN12C = test system: SN12C
UACC-257 = test system: UACC-257
UO-31 = test system: UO-31
SK-OV-3 = test system: SK-OV-3
SF-539 = test system: SF-539
SF-295 = test system: SF-295
NCI-H522 = test system: NCI-H522

SMILES	GI50 (SW-620)	GI50 (K562)	GI50 (SK-MEL-28)	GI50 (HOP-62)	GI50 (NCI-H460)	GI50 (HCT-15) [µM]	GI50 (A498)	GI50 (OVCAR-4)	GI50 (LXFL 529)	GI50 (SNB-75)	GI50 (SN12C)	GI50 (UACC-257)	GI50 (UO-31)	GI50 (SK-OV-3)	GI50 (SF-539)	GI50 (SF-295)	GI50 (NCI-H522)
CC1=NN(C(=O)Nc2ccccc2)C(=O)C2CCC(=O)N12 (centres undefined)	> 100 µM (inactive)	> 100 µM (inactive)	> 100 µM (inactive)	> 100 µM (inactive)	> 100 µM (inactive)	> 100	> 100 µM (inactive)	> 100 µM (inactive)	> 100 µM (inactive)	84.3 µM (inactive)	> 100 µM (inactive)	> 100 µM (inactive)	> 100 µM (inactive)	> 100 µM (inactive)	> 100 µM (inactive)	> 100 µM (inactive)	
CN(C)/N=N/c1cccc(C(N)=O)c1	> 100 µM (inactive)	> 100 µM (inactive)	> 100 µM (inactive)		> 100 µM (inactive)	> 100	> 100 µM (inactive)	> 100 µM (inactive)	> 100 µM (inactive)	69.3 µM (inactive)	> 100 µM (inactive)		> 100 µM (inactive)	> 100 µM (inactive)	> 100 µM (inactive)	> 100 µM (inactive)	
O=c1c2ccccc2nc(-c2ccccc2Cl)n1NC1OC(CO)C(O)C(O)C1O (centres undefined)	> 100 µM (inactive)	> 100 µM (inactive)	> 100 µM (inactive)	> 100 µM (inactive)	> 100 µM (inactive)	> 100	> 100 µM (inactive)	> 100 µM (inactive)	> 100 µM (inactive)	97.9 µM (inactive)	> 100 µM (inactive)	> 100 µM (inactive)	> 100 µM (inactive)	> 100 µM (inactive)	> 100 µM (inactive)	> 100 µM (inactive)	> 100 µM (inactive)
COc1ccc(C(=O)C(CC2C(=O)NC(=O)NC2=O)c2ccc(OC)cc2)cc1 (centres undefined)	> 100 µM (inactive)	> 100 µM (inactive)	> 100 µM (inactive)	> 100 µM (inactive)	> 100 µM (inactive)	> 100	> 100 µM (inactive)	> 100 µM (inactive)	> 100 µM (inactive)	> 100 µM (inactive)	> 100 µM (inactive)	> 100 µM (inactive)	> 100 µM (inactive)	> 100 µM (inactive)	> 100 µM (inactive)	> 100 µM (inactive)	> 100 µM (inactive)
CC(C)O/C=C1\C(=O)C2(SCCS2)[C@H]2CCCC[C@@H]12	42.7 µM (inactive)	39.8 µM (inactive)	> 100 µM (inactive)	38 µM (inactive)	33.7 µM (inactive)	33.9	17.7 µM (inactive)	48.9 µM (inactive)	33.7 µM (inactive)	28.8 µM (inactive)	68.7 µM (inactive)	42.6 µM (inactive)	41.3 µM (inactive)	59.7 µM (inactive)	44.3 µM (inactive)		20.5 µM (inactive)
CCOC(=O)COc1cccc2occc(=O)c12	> 100 µM (inactive)	> 100 µM (inactive)	> 100 µM (inactive)	> 100 µM (inactive)	> 100 µM (inactive)	> 100	> 100 µM (inactive)	> 100 µM (inactive)	> 100 µM (inactive)		> 100 µM (inactive)	> 100 µM (inactive)	> 100 µM (inactive)	> 100 µM (inactive)	> 100 µM (inactive)	> 100 µM (inactive)	> 100 µM (inactive)
CC1=CC(=C(c2ccc(N)c(C)c2)c2ccc(N)c(C)c2)C=CC1=N	3.8 µM (inactive)	2.92 µM (inactive)	5.71 µM (inactive)	2.79 µM (inactive)	3.61 µM (inactive)	12.8	9.16 µM (inactive)	10.5 µM (inactive)	1.27 µM (inactive)	1.51 µM (inactive)	0.33 µM (active)	3 µM (inactive)	28.3 µM (inactive)	4.66 µM (inactive)	2.67 µM (inactive)	0.873 µM (active)	3.03 µM (inactive)
O=C(O)CSc1nnc(-c2ccccc2O)[nH]1	> 100 µM (inactive)	> 100 µM (inactive)	> 100 µM (inactive)		> 100 µM (inactive)	> 100	> 100 µM (inactive)	> 100 µM (inactive)	> 100 µM (inactive)	> 100 µM (inactive)	> 100 µM (inactive)	> 100 µM (inactive)	> 100 µM (inactive)		> 100 µM (inactive)	> 100 µM (inactive)	
COc1cc(C(=O)C/C(CCC(=O)Nc2ccc(Cl)cc2Cl)=N/NC(=O)C(=O)NN)ccc1O	> 100 µM (inactive)	28.1 µM (inactive)	> 100 µM (inactive)	> 100 µM (inactive)	> 100 µM (inactive)	> 100	> 100 µM (inactive)	> 100 µM (inactive)	> 100 µM (inactive)	> 100 µM (inactive)	> 100 µM (inactive)	> 100 µM (inactive)	> 100 µM (inactive)	> 100 µM (inactive)	> 100 µM (inactive)	> 100 µM (inactive)	> 100 µM (inactive)
